According to patent US12060588B2, “Methods of editing DNA methylation” (Whitehead Institute for Biomedical Research, priority 2016, dated 2024):

How the values were obtained:
[1] = tested on: Snrpn promoter region (Dazl-Snrpn-GFP reporter); assay: Activation of the Dazl-Snrpn-GFP methylation reporter in mESCs (flow cytometry); type: cell-based, mouse; conditions: lentiviral infection, 3 days, FACS
Description: FIGS. 1A-IF depict activation of the Daz1-Snrpn-GFP reporter by dCas9-Tet1. […] FIG. 1B is a schematic representation of targeting the Snrpn promoter region by dCas9-Tet1 with specific gRNAs to erase methylation and activate GFP expression. […] Percentage of GFP positive cells were calculated by flow cytometric analysis of these cells 3-day post infection, and shown as the mean percentages of GFP positive cells±SD of two biological replicates. Note that the percentages of GFP-positive cells are expressed as the fraction of infected Cherry-positive cells. […] Scale bar: 250 um. Right: provides percentages of GFP positive colonies were quantified, and shown as the mean percentages of GFP positive cells±SD of two biological replicates. […] FIG. 1F provides methylation levels of individual CpGs in the Snrpn promoter region and the adjacent Dazl locus. Shown is the mean percentage±SD of two biological replicates.
To assess whether the dCas9-Tet1 and -Dnmt3a fusion constructs would induce demethylation or de novo methylation, respectively, of specific sequences, we utilized a methylation reporter system previously developed in our laboratory (Stelzer et al., 2015). This reporter system consists of a synthetic methylation-sensing promoter (conserved sequence elements from the promoter of an imprinted gene, Snrpn) that controls the expression of a green fluorescence protein (GFP). […]

[2] = tested on: Snrpn promoter (IG-DMR GFP/Pat reporter), skin dermal cells; assay: In vivo activation of the IG-DMR GFP/Pat reporter in mouse skin (lentiviral delivery)
Description: FIGS. 7A-7H depict targeted ex vivo and in vivo DNA methylation editing by dCas9-Tet1 to activate a silenced GFP reporter. FIG. 7A provides a schematic diagram illustrating the experimental procedure for the ex vivo activation of a silenced GFP reporter in mouse fibroblast cells. Mouse tail fibroblast cells were derived from a genetically modified mouse line carrying a paternal IG-DMR-Snrpn-GFP allele (IG-DMRGFP/Pat) in the Dlk1-Dio3 locus. The IG-DMR-Snrpn promoter on the paternal allele is hypermethylated so that the GFP reporter is constitutively silenced. The cultured fibroblast cells were infected with lentiviral vectors expressing dCas9-Tet1 and gRNAs to demethylate the Snrpn promoter and activate the GFP reporter. Cells are subject to imaging and FACS analysis. […] Stained in red for Cherry, green for GFP and DAPI for nuclei. Scale bar: 100 um. […] Brains were sliced and analyzed by immunohistochemical approaches. […] FIGS. 7G-7H provide quantification of the percentage of IG-DMR^GFP/Pat cells with GFP activation in Cherry (gRNAs) positive cells in the in vivo lentiviral delivery experiment in the brain (FIG. 7G) and in the skin epidemis (FIG. 7H). […]
FIGS. 14A-14F depict activation of IG-DMR^GFP/Pat reporter in mouse skin cells by dCas9-Tet1 mediated demethylation. […] Note red auto-fluorescence on the left edges of the epidermis. […]

Substance	GFP positive cells among the Cherry positive population ([1]; with 4 target gRNAs (Snrpn promoter))	GFP positive cells among the Cherry positive population ([1]; with a scrambled gRNA)	GFP reporter activation in infected skin dermal cells in vivo ([2]; with a scrambled gRNA)	GFP reporter activation in infected (Cherry positive) skin dermal cells in vivo ([2]; with Snrpn gRNAs, lentiviral injection into dermal sites, 3 days)
dCas9-Tet1: catalytically inactive Cas9 (dCas9) fused through NLS to the Tet1 catalytic domain, SEQ ID NO: 159; lentivirally expressed with gRNAs	about 26%	1%	did not activate GFP reporter expression	
dC-dT: dCas9 fused to an inactive mutant form of Tet1 (H1672Y, D1674A), SEQ ID NO: 160				did not activate GFP reporter expression
